Laboratory results reported in US20250206722A1, “SMALL MOLECULE INHIBITORS OF TEA DOMAIN FAMILY MEMBERS” (The Scripps Research Institute, priority 2022, published 2025).
pIC50: −log10 of the molar value.

How the values were obtained:
Assay type in all cases: cell-based
[1] = system: NCI-H226 cells; test: NCI-H226 proliferation assay (in house); settings: Homo sapiens, 120 h, 5 days, Cell TiterGlo, 20-point 1:2 dilution from 20 μM
In short: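 Cells in RPMI 1640 + 10% FBS, 500 per well, dosed after 24 h with 20-point 1:2 dilutions from 20 μM (final), in triplicate. After 5 days at 37 °C, 5% CO2, viability read by CellTiter-Glo luminescence.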

[2] = system: NCI-H226 cells; test: NCI-H226 proliferation assay (Wuxi AppTec); settings: Homo sapiens, 168 h, 7 days, CellTiter-Glo, top dose 10, 3-fold dilution, 9 doses
Description: […] Proliferation Assay (From Wuxi AppTec CO.):
Day −1: Seeding cells • (1) Equilibrate cell culture medium to 37° C. • (2) Remove and discard the culture medium. • (3) Briefly rinse the cell layer with PBS to remove all traces of serum that contains […]. • (4) Add 2-3 mL of Trypsin-EDTA solution to flask and observe cells under an inverted microscope until cell layer is dispersed. • (5) Add 6-8 mL of growth medium to terminate the digestion of Trypsin/EDTA. • (6) Centrifuge the mixture (Trypsin EDTA and the growth medium) at 1000 rpm for 5 mins. • (7) Discard the supernatant, suspend the cell precipitation with the fresh growth medium, then take 1 mL the cell suspension to count cells with Vi-cell XR cell viability analyzer. • (8) Adjust the cell density to 500 cells/well for 384-well plates. • (9) Add 50 µL/well volume cell suspension to the assay plate. • (10) Add […] media to the control columns. • (11) Incubate the plate at 37° C., 5% CO2 for overnight. Day 0: Compounds treatment • (1) Add cpds to each well by Tecan HP D300E. The top dose is […], 3-fold dilution and 9 doses. DMSO final concentration will be normalized to 0.2%. • (2) Incubate the assay plate at 37° C., 5% CO2 for 7 days. Day 7: Plate read • (1) Equilibrate the assay plate to the room temperature for nearly 30 minutes. • (2) Add […] CellTiter-Glo reagent to each well and shake the plate for 1 min, incubate 10 min and keep them from light. • (3) Detect the plate by EnVision. Data analysis:
Max: Average of the DMSO group Min: Average of medium group.

[3] = system: transcriptional activity of TEADs; test: TEAD reporter assay (MCF7 TEAD-LUC reporter cells); settings: Homo sapiens, 24 hours, BrightGlo luminescence
In short: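 MCF7 TEAD-LUC reporter cells were plated at 5,000/well and after 24 h treated with a 20-point 1:2 series from 20 μM final, in triplicate. Luciferase was read by BrightGlo luminescence after 24 h exposure at 37 °C.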

SMILES | IC50 [1] | IC50 [2] | pIC50 [3]
C=C(F)C(=O)N1CC(Nc2nccnc2Nc2ccc(C(F)(F)F)nc2)C1 [Example 63, 2-fluoro-1-(3-((3-((6-(trifluoromethyl)pyridin-3-yl)amino)pyrazin-2-yl)amino)azetidin-1-yl)prop-2-en-1-one] | 1.5 µM | 1.7 µM | 8.32
C=C(F)C(=O)N1CC=C(c2cccnc2Oc2ccc(C(F)(F)F)nc2)CC1 [Example 154, 2-fluoro-1-(2-((6-(trifluoromethyl)pyridin-3-yl)oxy)-3′,6′-dihydro-[3,4′-bipyridin]-1′(2′H)-yl)prop-2-en-1-one] | 0.05 µM | 0.02 µM | 8.54
C=CC(=O)N1CC=C(c2nccnc2Nc2ccc(C(F)(F)F)cn2)CC1 [Example 43, 1-(4-(3-((5-(trifluoromethyl)pyridin-2-yl)amino)pyrazin-2-yl)-3,6-dihydropyridin-1(2H)-yl)prop-2-en-1-one] | 0.006 µM | 0.011 µM | 9.00
C=CC(=O)N1CCN(c2nccnc2N2CCC(C(F)(F)F)CC2)CC1 [Example 105, 1-(4-(3-(4-(trifluoromethyl)piperidin-1-yl)pyrazin-2-yl)piperazin-1-yl)prop-2-en-1-one] | 0.004 µM | 0.05 µM | 8.96
C=CC(=O)N1CCN(c2ccnnc2Nc2ccc(C(F)(F)F)cc2)CC1 [Example 119, 1-(4-(3-((4-(trifluoromethyl)phenyl)amino)pyridazin-4-yl)piperazin-1-yl)prop-2-en-1-one] | 0.012 µM | 0.042 µM | 8.49
C=CC(=O)N1CCC(n2nc(C)cc2C(=O)c2ccc(C(F)(F)F)cc2)CC1 [Example 166, 1-(4-(3-methyl-5-(4-(trifluoromethyl)benzoyl)-1H-pyrazol-1-yl)piperidin-1-yl)prop-2-en-1-one] | 0.02 µM | 0.015 µM | 9.22
C=CC(=O)N1CCN(c2nccnc2Oc2ccc(OC(F)F)cc2)CC1 [Example 71, 1-(4-(3-(4-(difluoromethoxy)phenoxy)pyrazin-2-yl)piperazin-1-yl)prop-2-en-1-one] | 0.008 µM | 0.007 µM | 8.89
C=CC(=O)N1CCC(c2cccnc2Oc2ccc(C(F)(F)F)nc2)CC1 [Example 155, 1-(4-(2-((6-(trifluoromethyl)pyridin-3-yl)oxy)pyridin-3-yl)piperidin-1-yl)prop-2-en-1-one] | 0.015 µM | 0.018 µM | 8.74
C=CC(=O)N1CCN(c2nccnc2NC2C3CC2C3C(F)(F)F)CC1 (stereo not drawn) [Example 67, 1-(4-(3-((4-(trifluoromethyl)bicyclo[1.1.1]pentan-2-yl)amino)pyrazin-2-yl)piperazin-1-yl)prop-2-en-1-one] | 0.079 µM | 1.45 µM | 8.54
C=C(F)C(=O)N1CCN(c2nccnc2Nc2ccc(C(F)(F)F)nc2)CC1 [Example 46, 2-fluoro-1-(4-(3-((6-(trifluoromethyl)pyridin-3-yl)amino)pyrazin-2-yl)piperazin-1-yl)prop-2-en-1-one] | 1.63 µM | 0.452 µM | 9.22
C=CC(=O)N1CCN(c2nccnc2Nc2ccc(OC(F)F)nc2)CC1 [Example 49, 1-(4-(3-((6-(difluoromethoxy)pyridin-3-yl)amino)pyrazin-2-yl)piperazin-1-yl)prop-2-en-1-one] | 0.055 µM | 0.031 µM | 8.70
C=CC(=O)N1CCN(c2nccnc2Nc2cnc(C(F)(F)F)c(F)c2)CC1 [Example 50, 1-(4-(3-((5-fluoro-6-(trifluoromethyl)pyridin-3-yl)amino)pyrazin-2-yl)piperazin-1-yl)prop-2-en-1-one] | 0.034 µM | 0.026 µM | 8.51
C=CC(=O)N1CC=C(c2cccnc2Oc2ccc(C(F)(F)F)nc2)CC1 [Example 153, 1-(2-((6-(trifluoromethyl)pyridin-3-yl)oxy)-3′,6′-dihydro-[3,4′-bipyridin]-1′(2′H)-yl)prop-2-en-1-one] | 0.034 µM | 0.065 µM | 8.85
C=C(F)C(=O)N1CCN(c2nccnc2Oc2ccc(C(F)(F)F)nc2)CC1 [Example 78, 2-fluoro-1-(4-(3-((6-(trifluoromethyl)pyridin-3-yl)oxy)pyrazin-2-yl)piperazin-1-yl)prop-2-en-1-one] | 0.032 µM | 0.009 µM | 8.68
C=CC(=O)N1CCC(c2cncnc2Oc2ccc(C(F)(F)F)nc2)CC1 [Example 126, 1-(4-(4-((6-(trifluoromethyl)pyridin-3-yl)oxy)pyrimidin-5-yl)piperidin-1-yl)prop-2-en-1-one] | 0.364 µM | 0.339 µM | 7.72
C=CC(=O)N1CCN(c2nc(C)c(C)nc2Nc2ccc(C(F)(F)F)nc2)CC1 [Example 113, 1-(4-(5,6-dimethyl-3-((6-(trifluoromethyl)pyridin-3-yl)amino)pyrazin-2-yl)piperazin-1-yl)prop-2-en-1-one] | 0.04 µM | 0.032 µM | 8.57
C#CCC1CN(c2nccnc2Nc2ccc(C(F)(F)F)cc2)CCN1C(=O)C=C (stereo not drawn) [Example 23, 1-(2-(prop-2-yn-1-yl)-4-(3-((4-(trifluoromethyl)phenyl)amino)pyrazin-2-yl)piperazin-1-yl)prop-2-en-1-one] | 0.651 µM | 0.151 µM | 9.52
C=CC(=O)N1CC=C(c2nccnc2Oc2cnc(C(F)(F)F)nc2)CC1 [Example 89, 1-(4-(3-((2-(trifluoromethyl)pyrimidin-5-yl)oxy)pyrazin-2-yl)-3,6-dihydropyridin-1(2H)-yl)prop-2-en-1-one] | 0.164 µM | 0.033 µM | 8.74
C=CC(=O)N1CC=C(c2cccnc2Oc2cnc(C(F)(F)F)nc2)CC1 [Example 157, 1-(2-((2-(trifluoromethyl)pyrimidin-5-yl)oxy)-3′,6′-dihydro-[3,4′-bipyridin]-1′(2′H)-yl)prop-2-en-1-one] | 0.132 µM | 0.013 µM | 8.80
C=CC(=O)N1CCC(c2ncccc2Oc2ccc(C(F)(F)F)nc2)CC1 [Example 138, 1-(4-(3-((6-(trifluoromethyl)pyridin-3-yl)oxy)pyridin-2-yl)piperidin-1-yl)prop-2-en-1-one] | 2.4 µM | 0.134 µM | 7.27
C=CC(=O)N1CCN(c2nccnc2N2CC3(CC(C(F)(F)F)C3)C2)CC1 [Example 110, 1-(4-(3-(6-(trifluoromethyl)-2-azaspiro[3.3]heptan-2-yl)pyrazin-2-yl)piperazin-1-yl)prop-2-en-1-one] | 0.067 µM | 0.046 µM | 8.52
C=CC(=O)N1CC=C(c2cnc(C)nc2Oc2ccc(C(F)(F)F)nc2)CC1 [Example 129, 1-(4-(2-methyl-4-((6-(trifluoromethyl)pyridin-3-yl)oxy)pyrimidin-5-yl)-3,6-dihydropyridin-1(2H)-yl)prop-2-en-1-one] | 0.104 µM | 0.137 µM | 8.92
C=CC(=O)N1CCN(c2nccnc2Nc2ccc(OC(F)F)cc2)CC1 [Example 35, 1-(4-(3-((4-(difluoromethoxy)phenyl)amino)pyrazin-2-yl)piperazin-1-yl)prop-2-en-1-one] | 0.084 µM | 0.028 µM | 9.10
C=CC(=O)N1CCN(c2nccnc2N2CC(c3ccc(F)cc3)C2)CC1 [Example 107, 1-(4-(3-(3-(4-fluorophenyl)azetidin-1-yl)pyrazin-2-yl)piperazin-1-yl)prop-2-en-1-one] | 0.018 µM | 0.049 µM | 9.15
C=CC(=O)N1CCC(c2cccnc2Oc2cnc(C(F)(F)F)nc2)CC1 [Example 159, 1-(4-(2-((2-(trifluoromethyl)pyrimidin-5-yl)oxy)pyridin-3-yl)piperidin-1-yl)prop-2-en-1-one] | 0.022 µM | 0.051 µM | 8.74
C=CC(=O)N1CCN(c2nccnc2C(=O)c2ccc(C(F)(F)F)nc2)CC1 [Example 96, 1-(4-(3-(6-(trifluoromethyl)nicotinoyl)pyrazin-2-yl)piperazin-1-yl)prop-2-en-1-one] | 0.012 µM | 0.089 µM | 8.44
C=C(F)C(=O)N1CC=C(c2nccnc2Oc2cnc(C(F)(F)F)nc2)CC1 [Example 90, 2-fluoro-1-(4-(3-((2-(trifluoromethyl)pyrimidin-5-yl)oxy)pyrazin-2-yl)-3,6-dihydropyridin-1(2H)-yl)prop-2-en-1-one] | 0.033 µM | 0.031 µM | 8.23
